Reference: paper PMC10238281 (International Journal of Biological Macromolecules, 2023)

Assays:
SARS2-S pseudovirus = test: microbe, parasite or virus in culture; format: cell-based, SARS-CoV-2; conditions: for activity at 2 µM: A549-ACE2, 72 h, read-out: Luciferase ratio (%), 2 μM
[1] = Tissue distribution / pharmacokinetics in female ICR mice; format: in vivo
spike RBD protein = spike RBD protein (Severe acute respiratory syndrome coronavirus 2, UniProt P0DTC2); format: binding, SARS-CoV-2

For `O=C(c1cccc(F)c1)c1c[nH]c2ncc(-c3ccc(N4CCNCC4)nc3)cc12` [ASM-9, (3-Fluorophenyl)(5-(6-(piperazin-1-yl)pyridin-3-yl)-1H-pyrrolo[2,3-b]pyridin-3-yl)methanone], the activity at 2 µM (SARS2-S pseudovirus; Pseudovirus) was under 25%.
In the case of `CN1CCN(c2ccc(-c3cnc4[nH]cc(C(=O)c5ccc(F)cc5)c4c3)cc2)CC1` [ASM-2, (4-Fluorophenyl)(5-(4-(4-methylpiperazin-1-yl)phenyl)-1H-pyrrolo[2,3-b]pyridin-3-yl)methanone], the activity at 2 µM (SARS2-S pseudovirus; Pseudovirus) is reported as under 25%.
In the case of `O=C(c1ccc(F)cc1)c1c[nH]c2ncc(-c3ccc(N4CCNCC4)nc3)cc12` [ASM-7, (4-Fluorophenyl)(5-(6-(piperazin-1-yl)pyridin-3-yl)-1H-pyrrolo[2,3-b]pyridin-3-yl)methanone], the “Fold advantage of EC50 over G7a” value (SARS2-S pseudovirus) is reported as 20 fold, the EC50 (SARS2-S pseudovirus; Pseudovirus, A549-ACE2, read-out: EC50, inhibition of SARS2-S pseudovirus entry) is reported as 450 nM and the “Organ distribution (heart, liver, spleen, lung, kidney, brain)” value ([1]; female ICR mice, 1 h after oral administration (30 mg/kg)) is reported as “favorable targetability towards the lung”. The “Blood versus lung concentration” value ([1]; female ICR mice, intravenous administration, 5 min) was “concentration of ASM-7 in the lung was substantially higher”, the “Detection in the lung after oral administration” value ([1]; female ICR mice, oral, 4 h) was “could still be detected in the lung” and the concentration at 5 min ([1]; female, ICR, mouse, lung, iv, 3 mg/kg) was 30000 ng/g.
With `COc1ccc(C(=O)c2c[nH]c3ncc(-c4ccc(N5CCNCC5)nc4)cc23)cc1` [ASM-4, (4-Methoxyphenyl)(5-(6-(piperazin-1-yl)pyridin-3-yl)-1H-pyrrolo[2,3-b]pyridin-3-yl)methanone] the activity at 2 µM (SARS2-S pseudovirus; Pseudovirus) was under 25%.
With `O=C(CCCCC1SCC2NC(=O)NC21)NCCCCCC(=O)N1CCN(c2ccc(-c3cnc4[nH]cc(C(=O)c5ccc(F)cc5)c4c3)cn2)CC1` (centres unmarked) [Biotin-ASM-7, N-(6-(4-(5-(3-(4-Fluorobenzoyl)-1H-pyrrolo[2,3-b]pyridin-5-yl)pyridin-2-yl)piperazin-1-yl)-6-oxohexyl)-5-(2-oxohexahydro-1H-thieno[3,4-d]imidazol-4-yl)pentanamide] the “Binding / pull-down of spike RBD protein by streptavidin IP” value (spike RBD protein) was “could pull down the spike RBD protein”.
With `O=C(CCCCC1SCC2NC(=O)NC21)NCCCCCC(=O)N1CCN(c2ccc(-c3cnc4[nH]c(/C=C/c5ccccc5O)nc4c3)cn2)CC1` (centres unmarked) [Biotin-G7a, (E)-N-(6-(4-(5-(2-(2-Hydroxystyryl)-3H-imidazo[4,5-b]pyridin-6-yl)pyridin-2-yl)piperazin-1-yl)-6-oxohexyl)-5-(2-oxohexahydro-1H-thieno[3,4-d]imidazol-4-yl)pentanamide] the “Binding / pull-down of spike RBD protein by streptavidin IP” value (spike RBD protein) was “retained the ability to bind spike RBD protein”.
